{"source": "paper PMC10394814", "about": "“Discovery and evaluation of active compounds from Xuanfei Baidu formula against COVID-19 via SARS-CoV-2 M^pro” (Chinese Medicine, 2023)", "key": {"SARS-CoV-2 M^pro [1]": {"target": "T1, SARS-CoV-2 M^pro (Severe acute respiratory syndrome coronavirus 2, UniProt P0DTD1)", "assay": "SPR binding affinity to M^pro (Biacore T200, CM5 chip)", "details": "for kon / koff: kinetic mode; for kon: read-out: Ka (association rate constant); for koff: read-out: Kd (dissociation rate constant)", "experimental": "SPR assay. Biacore T200 system was used for SPR assay. M^pro was conjugated to a sensor Chip (CM5) via amino coupling reaction. The tested compounds were diluted with the running buffer (1.05 × PBS-P, 5% DMSO) to reach the working concentration of 0.977–500 µM, being injected into the channels at a flow rate of 30 µL/min. The coupling time and the dissociation time were respectively set at 60 s and 120 s or 180 s. The data were analyzed for fitting the equilibrium dissociation constant (KD)."}, "SARS-CoV-2 M^pro [2]": {"target": "T1, SARS-CoV-2 M^pro", "assay": "FRET screening of SARS-CoV-2 M^pro inhibitors", "format": "biochemical", "details": "for inhibition at 40 µM: read-out: inhibition rate; for IC50: n = 5", "experimental": "FRET screening was carried out for identifying the inhibitors of SARS-CoV-2 M^pro. […] The screening system was established by employing M^pro (200 nM), substrate (20 µM), and the tested compounds with the different concentrations from 0.039 to 160 µM. The excitation and emission wavelength were set at 320 and 405 nm, separately. The data was analyzed with Graphpad prism 9.0 and all experiments were performed in triplicates."}, "mice": {"system": "mice", "details": "cited from earlier work"}, "in vitro": {"assay": "in vitro", "format": "cell-based", "details": "African green monkey", "experimental": "Vero E6 (ATCC, CRL-1586) cells (1 × 10^4 cells/well) were maintained in a 96-well plate for 12 h. All cells were cultured in complete medium composed of Dulbecco’s Modified Eagle Medium (DMEM) (Gibco, USA), 10% (v/v) serum, 100 U/mL penicillin, and 100 µg/mL streptomycin. The diluted solutions of the tested compounds (200 µL) at the concentrations of 100, 80, 60, 40, 20, 10, and 5 µM were added to wells and incubated for another 24 or 48 h, respectively. At the terminus period of incubation, 50 µL MTT (2.5 mg/mL) was added to each well and continuously incubated at 37 ℃ for 4 h. After disposal of the liquid supernatant, 150 µL DMSO was added to each well, whose absorbance was detected at 490 nm via Microplate Reader (TECAN SunriseTM, China). Cytotoxicity was calculated as follows: Cell viability (%) = (ODexperiment-ODBlank)/(ODcontrol-ODBlank) × 100%. The data were analyzed with GraphPad Prism 9.0. All experiments were performed in triplicates."}, "SARS-CoV-2 M^pro [3]": {"target": "T1, SARS-CoV-2 M^pro", "assay": "ITC measurement of binding to M^pro", "details": "ITC at 298 K"}, "[4]": {"details": "kinetic mode (physcion: affinity mode)"}}, "note": "Where two headings read alike, the source gives them in different places.", "data": [{"smiles": "COc1c(/C=C/C(=O)c2ccc(O)c(CC=C(C)C)c2)ccc(O)c1O", "note": "[Licochalcone D]", "values": [{"measurement": "Kd", "setting": "SARS-CoV-2 M^pro [1]; [4]", "value": 4.87, "unit": "µM"}, {"measurement": "kon", "setting": "SARS-CoV-2 M^pro [1]", "value": 2810, "unit": "M⁻¹ s⁻¹"}, {"measurement": "koff", "setting": "SARS-CoV-2 M^pro [1]", "value": 0.0137, "unit": "s⁻¹"}, {"measurement": "inhibition at 40 µM", "setting": "SARS-CoV-2 M^pro [2]", "value": "> 90", "unit": "%"}, {"measurement": "IC50", "setting": "SARS-CoV-2 M^pro [2]; with 0.01% Triton X-100", "value": 29.5, "unit": "µM"}, {"measurement": "IC50", "setting": "SARS-CoV-2 M^pro [2]; without Triton X-100", "value": 5.54, "unit": "µM"}]}, {"smiles": "COc1c(/C=C/C(=O)c2ccc(O)cc2)ccc(O)c1O", "note": "[Licochalcone B]", "values": [{"measurement": "Kd", "setting": "SARS-CoV-2 M^pro [1]; [4]", "value": 5.64, "unit": "µM"}, {"measurement": "kon", "setting": "SARS-CoV-2 M^pro [1]", "value": 2210, "unit": "M⁻¹ s⁻¹"}, {"measurement": "koff", "setting": "SARS-CoV-2 M^pro [1]", "value": 0.0125, "unit": "s⁻¹"}, {"measurement": "inhibition at 40 µM", "setting": "SARS-CoV-2 M^pro [2]", "value": "> 90", "unit": "%"}, {"measurement": "IC50", "setting": "SARS-CoV-2 M^pro [2]; with 0.01% Triton X-100", "value": "5.12 ± 1.53", "unit": "µM"}, {"measurement": "IC50", "setting": "SARS-CoV-2 M^pro [2]; without Triton X-100", "value": "4.24 ± 1.03", "unit": "µM"}]}, {"smiles": "COc1cc(O)c2c(c1)C(=O)c1cc(C)cc(O)c1C2=O", "note": "[Physcion]", "values": [{"measurement": "Kd", "setting": "SARS-CoV-2 M^pro [1]", "value": 167, "unit": "µM"}, {"measurement": "inhibition at 40 µM", "setting": "SARS-CoV-2 M^pro [2]", "value": "> 90", "unit": "%"}, {"measurement": "IC50", "setting": "SARS-CoV-2 M^pro [2]; with 0.01% Triton X-100", "value": "31.6 ± 25.6", "unit": "µM"}, {"measurement": "IC50", "setting": "SARS-CoV-2 M^pro [2]; without Triton X-100", "value": "22.1 ± 3.01", "unit": "µM"}]}, {"smiles": "CCCCC/C=C\\C/C=C\\CCCCCCCC(=O)O", "note": "[Linoleic acid, Linoleic Acid]", "values": [{"measurement": "Kd", "setting": "SARS-CoV-2 M^pro [1]", "value": 10.8, "unit": "µM"}, {"measurement": "inhibition at 40 µM", "setting": "SARS-CoV-2 M^pro [2]", "value": "> 90", "unit": "%"}, {"measurement": "IC50", "setting": "SARS-CoV-2 M^pro [2]; with 0.01% Triton X-100", "value": "43 ± 1.93", "unit": "µM"}]}, {"smiles": "C[C@@H]1O[C@@H](O[C@@H]2[C@@H](O)[C@H](OCCc3ccc(O)c(O)c3)O[C@H](CO)[C@H]2OC(=O)/C=C/c2ccc(O)c(O)c2)[C@H](O)[C@H](O)[C@H]1O", "note": "[Acteoside]", "values": [{"measurement": "safe dose", "setting": "mice", "value": "up to 800 mg/kg"}, {"measurement": "CC50", "setting": "in vitro", "value": "> 100", "unit": "µM"}, {"measurement": "Kd", "setting": "SARS-CoV-2 M^pro [1]; [4]", "value": 4.67, "unit": "µM"}, {"measurement": "kon", "setting": "SARS-CoV-2 M^pro [1]", "value": 847, "unit": "M⁻¹ s⁻¹"}, {"measurement": "koff", "setting": "SARS-CoV-2 M^pro [1]", "value": 0.00396, "unit": "s⁻¹"}, {"measurement": "inhibition at 40 µM", "setting": "SARS-CoV-2 M^pro [2]", "value": "> 90", "unit": "%"}, {"measurement": "IC50", "setting": "SARS-CoV-2 M^pro [2]; with 0.01% Triton X-100", "value": "1.93 ± 0.76", "unit": "µM"}, {"measurement": "IC50", "setting": "SARS-CoV-2 M^pro [2]; without Triton X-100", "value": "2.53 ± 1.02", "unit": "µM"}, {"measurement": "N (binding stoichiometry)", "setting": "SARS-CoV-2 M^pro [3]", "value": 0.48}, {"measurement": "ΔS (entropy variation)", "setting": "SARS-CoV-2 M^pro [3]", "value": 27.3, "unit": "cal/mol/deg"}]}]}
